Experimental data taken from PubChem BioAssay (NCI).
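Dose response: 5 concentrations. Exposure: 48 h. Format: 96-well plates. Endpoint: linear interpolation; highest concentration if not reached. The concentration for 50% growth inhibition is given as GI50. At the TGI there is no net growth.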 Where a SMILES comes first, the peptide text is derived from it. The star is where a group is joined. Cbz = O=C(OCc1ccccc1)*; Bn = c1ccc(C*)cc1

Tests used:
Assay in all cases: growth of human tumour cells (NCI), 48 h
NCI/ADR-RES ovarian = system: NCI/ADR-RES ovarian
MCF7 breast = system: MCF7 breast
HL-60(TB) leukemia = system: HL-60(TB) leukemia
SR leukemia = system: SR leukemia
M14 melanoma = system: M14 melanoma
ACHN renal = system: ACHN renal
TK-10 renal = system: TK-10 renal
DLD-1 colon = system: DLD-1 colon
M19-MEL melanoma = system: M19-MEL melanoma
XF 498 CNS = system: XF 498 CNS
SNB-78 CNS = system: SNB-78 CNS
HOP-62 NSCLC = system: HOP-62 NSCLC
DMS 273 small cell lung = system: DMS 273 small cell lung
HOP-92 NSCLC = system: HOP-92 NSCLC
HOP-18 NSCLC = system: HOP-18 NSCLC
DMS 114 small cell lung = system: DMS 114 small cell lung

Compound	TGI (NCI/ADR-RES ovarian)	TGI (MCF7 breast)	TGI (HL-60(TB) leukemia)	TGI (SR leukemia)	TGI (M14 melanoma)	TGI (ACHN renal)	TGI (TK-10 renal)	TGI (DLD-1 colon)	TGI (M19-MEL melanoma)	TGI (XF 498 CNS)	TGI (SNB-78 CNS)	TGI (HOP-62 NSCLC)	TGI (DMS 273 small cell lung)	TGI (HOP-92 NSCLC)	TGI (HOP-18 NSCLC)	TGI (DMS 114 small cell lung)	GI50 (NCI/ADR-RES ovarian)	GI50 (SR leukemia)	GI50 (ACHN renal)	GI50 (HOP-92 NSCLC)
CS(=O)(=O)c1ccc2nc(-c3ccc(O)cc3)sc2c1	36.2 µM	35.5 µM	63.9 µM	39.8 µM	38.4 µM	32.4 µM	29.8 µM													
CCn1c(=O)c(C(=O)O)c(Cl)c2cc3c(cc21)OCO3	> 100 µM	> 100 µM	> 100 µM					> 100 µM	> 100 µM	> 100 µM	> 100 µM	> 100 µM	> 100 µM	> 100 µM	> 100 µM					
CC(=O)OCC1OC(NC(=O)N(CCCl)N=O)C(OC(C)=O)C(OC(C)=O)C1OC(C)=O (stereo unspecified)	> 100 µM	> 100 µM	> 100 µM					> 100 µM	> 100 µM	> 100 µM	> 100 µM	> 100 µM	> 100 µM	> 100 µM	> 100 µM	> 100 µM				
CC1C[C@]2(C[C@@H](C)C(=O)O2)OC2CC3(C)C4CCC5C(C)(C)OC(=O)CC[C@@]56C[C@@]46CC[C@]3(C)C12 (stereo partly specified)			> 100 µM	> 100 µM	> 100 µM	> 100 µM	> 100 µM	> 100 µM		> 100 µM	> 100 µM		> 100 µM	> 100 µM	> 100 µM	> 100 µM				
c1ccc(-c2n(Cc3ccc4ccccc4c3)c3ccccc3[n+]2Cc2ccc3ccccc3c2)cc1	5.93 µM			1.64 µM		2.36 µM								0.508 µM			2.21 µM	0.343 µM	0.975 µM	0.117 µM
COc1ccc(N2C(=O)/C(=C\c3ccccc3)SC2c2cc(OC)c(OC)c(OC)c2)cc1 (stereo unspecified)	> 100 µM	> 100 µM		> 100 µM	> 100 µM	> 100 µM	> 100 µM					> 100 µM		> 100 µM						
CCCCSCC(NC(=O)/C=C/c1c(C)[nH]c(=O)[nH]c1=O)C(=O)OC (stereo unspecified)	> 450 µM	114 µM	206 µM					275 µM	191 µM		303 µM	252 µM	264 µM	189 µM	330 µM	271 µM				
O=C1c2cccc(O)c2C(=O)c2c(O)cccc21				> 100 µM	> 100 µM	> 100 µM	> 100 µM	> 100 µM	24.3 µM	> 100 µM	> 100 µM	> 100 µM	> 100 µM	> 100 µM		> 100 µM				
C1CSCCSCSCCS1	> 100 µM	> 100 µM			> 100 µM	> 100 µM	> 100 µM					> 100 µM		> 100 µM						
CN(C)CCOc1cc2c(c3ccccc13)-c1ccccc1C2O (stereo unspecified)	19.5 µM	28.3 µM	26.6 µM					30.2 µM	30.9 µM	25.7 µM	31.6 µM	29 µM	29 µM	19.5 µM	29.5 µM	26.2 µM				
C=CCOCCC(CC=C)C(=O)CC(=O)OC (stereo unspecified)			> 100 µM	> 100 µM	> 100 µM	> 100 µM	> 100 µM	> 100 µM		> 100 µM		> 100 µM	> 100 µM	> 100 µM	> 100 µM					
COC(=O)C(Cc1ccc(O)cc1)NC(=O)C(COCc1ccccc1)NC(=O)OCc1ccccc1 (stereo unspecified) (Cbz-Ser(Bn)-Tyr-OMe; configuration not given here)	38.8 µM	36.6 µM	> 100 µM	> 100 µM	33.5 µM	31.2 µM	35.2 µM					33.6 µM		60.8 µM						
NC(=O)c1ccc([N+](=O)[O-])cc1					> 100 µM		> 100 µM	> 100 µM	> 100 µM	> 100 µM	> 100 µM	> 100 µM	> 100 µM			> 100 µM				
O=C(Nc1ccc(Cl)cc1)c1cc([N+](=O)[O-])ccc1O			8.62 µM	31.6 µM	18.9 µM	> 100 µM	> 60.6 µM	> 100 µM	23.5 µM	8.72 µM		9.26 µM	20 µM		7.16 µM	6.75 µM				
